Columns and labels:
Adenosine receptor A2a = Adenosine receptor A2a (Homo sapiens, UniProt P29274); test: DRUGMATRIX: Adenosine A2A radioligand binding (ligand: […]); assay type: cell membranes, HEK293, Membrane; conditions: hek293; Not Active = under 50% inhibition at 10 µM
Caspase-1 = target: T1, Caspase-1 (Homo sapiens, UniProt P29466); parameters: species or system Escherichia coli;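 note: Caspase-1 enzyme inhibition assay with a peptide substrate; in other assays of this panel Not Active means under 50% inhibition at 10 µM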
T1 sequence (P29466 whole entry): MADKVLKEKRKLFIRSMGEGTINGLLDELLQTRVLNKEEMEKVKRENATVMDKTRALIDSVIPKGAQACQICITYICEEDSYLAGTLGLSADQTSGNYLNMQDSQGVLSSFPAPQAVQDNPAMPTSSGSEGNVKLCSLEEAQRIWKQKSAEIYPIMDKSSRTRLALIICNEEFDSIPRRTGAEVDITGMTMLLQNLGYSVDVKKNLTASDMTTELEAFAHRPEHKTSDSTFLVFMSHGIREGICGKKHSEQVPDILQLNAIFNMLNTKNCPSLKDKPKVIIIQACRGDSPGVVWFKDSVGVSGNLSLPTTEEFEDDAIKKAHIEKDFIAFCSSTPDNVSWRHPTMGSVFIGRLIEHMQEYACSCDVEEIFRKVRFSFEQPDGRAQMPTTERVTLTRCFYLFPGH

[1] = DRUGMATRIX: Atrial Natriuretic Factor (ANF) radioligand binding (ligand: [125I] ANF (rat)); assay type: cell membranes, Cavia porcellus, Dunkin-Hartley, Adrenal gland, Membrane; conditions: Not Active = under 50% inhibition at 10 µM
[2] = target: T2, C-X-C chemokine receptor type 1 (Homo sapiens, UniProt P25024); note: in other assays of this panel Not Active means under 50% inhibition at 10 µM
T2 sequence (P25024 whole entry): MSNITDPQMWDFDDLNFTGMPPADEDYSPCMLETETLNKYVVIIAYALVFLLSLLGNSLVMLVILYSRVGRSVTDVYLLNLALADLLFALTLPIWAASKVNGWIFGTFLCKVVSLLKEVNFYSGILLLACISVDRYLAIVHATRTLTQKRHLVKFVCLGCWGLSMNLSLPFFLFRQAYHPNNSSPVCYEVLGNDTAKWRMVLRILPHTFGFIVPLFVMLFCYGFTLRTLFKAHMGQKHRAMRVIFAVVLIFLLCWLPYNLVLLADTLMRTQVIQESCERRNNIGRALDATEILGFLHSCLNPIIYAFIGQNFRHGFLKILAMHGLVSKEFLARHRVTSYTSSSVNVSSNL

[3] = DRUGMATRIX: Phosphodiesterase PDE3 enzyme inhibition (substrate: [3H]cAMP + cAMP); assay type: tissue-based, Homo sapiens; conditions: platelet; Not Active = under 50% inhibition at 10 µM
[4] = target: T3, Alpha-2C adrenergic receptor (Homo sapiens, UniProt P18825); test: DRUGMATRIX: Adrenergic Alpha-2C radioligand binding (ligand: [3H] MK-912); assay type: cell membranes, Sf9, Membrane; conditions: sf9
T3 sequence (P18825 whole entry): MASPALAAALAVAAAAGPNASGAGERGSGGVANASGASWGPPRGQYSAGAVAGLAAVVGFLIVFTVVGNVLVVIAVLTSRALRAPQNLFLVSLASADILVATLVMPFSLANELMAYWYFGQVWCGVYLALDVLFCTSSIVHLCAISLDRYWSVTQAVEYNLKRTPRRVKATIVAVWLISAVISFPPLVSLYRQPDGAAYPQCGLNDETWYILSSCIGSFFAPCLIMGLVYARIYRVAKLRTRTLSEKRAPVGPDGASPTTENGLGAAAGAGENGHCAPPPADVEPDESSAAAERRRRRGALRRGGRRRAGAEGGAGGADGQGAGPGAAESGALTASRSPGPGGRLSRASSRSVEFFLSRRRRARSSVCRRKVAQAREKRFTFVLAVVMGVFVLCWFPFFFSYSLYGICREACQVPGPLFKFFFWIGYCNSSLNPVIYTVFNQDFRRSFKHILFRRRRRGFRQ

[5] = target: 5-hydroxytryptamine receptor 4 (Cavia porcellus, UniProt O70528); assay type: cell membranes, Dunkin-Hartley, Striatum, Membrane; note: in other assays of this panel Not Active means under 50% inhibition at 10 µM
5-hydroxytryptamine receptor 4, sequence (O70528 whole entry): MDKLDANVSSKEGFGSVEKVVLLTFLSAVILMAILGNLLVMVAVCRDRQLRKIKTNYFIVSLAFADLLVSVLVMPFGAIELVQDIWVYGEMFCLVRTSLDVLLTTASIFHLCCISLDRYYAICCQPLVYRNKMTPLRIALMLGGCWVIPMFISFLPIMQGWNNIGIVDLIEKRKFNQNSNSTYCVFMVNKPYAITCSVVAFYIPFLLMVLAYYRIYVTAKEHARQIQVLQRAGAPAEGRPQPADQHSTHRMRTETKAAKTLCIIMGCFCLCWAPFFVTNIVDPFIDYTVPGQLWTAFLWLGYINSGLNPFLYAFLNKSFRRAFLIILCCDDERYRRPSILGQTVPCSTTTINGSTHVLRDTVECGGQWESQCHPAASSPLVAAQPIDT

[6] = DRUGMATRIX: Potassium Channel [KATP] radioligand binding (ligand: [3H] Glyburide); assay type: cell membranes, Membrane; conditions: hit-t15; Not Active = under 50% inhibition at 10 µM
Nitric oxide synthase 1 = Nitric oxide synthase 1 (Rattus norvegicus, UniProt P29476); assay type: tissue-based, Cerebellum; note: in other assays of this panel Not Active means under 50% inhibition at 10 µM
Nitric oxide synthase 1, sequence (P29476 whole entry): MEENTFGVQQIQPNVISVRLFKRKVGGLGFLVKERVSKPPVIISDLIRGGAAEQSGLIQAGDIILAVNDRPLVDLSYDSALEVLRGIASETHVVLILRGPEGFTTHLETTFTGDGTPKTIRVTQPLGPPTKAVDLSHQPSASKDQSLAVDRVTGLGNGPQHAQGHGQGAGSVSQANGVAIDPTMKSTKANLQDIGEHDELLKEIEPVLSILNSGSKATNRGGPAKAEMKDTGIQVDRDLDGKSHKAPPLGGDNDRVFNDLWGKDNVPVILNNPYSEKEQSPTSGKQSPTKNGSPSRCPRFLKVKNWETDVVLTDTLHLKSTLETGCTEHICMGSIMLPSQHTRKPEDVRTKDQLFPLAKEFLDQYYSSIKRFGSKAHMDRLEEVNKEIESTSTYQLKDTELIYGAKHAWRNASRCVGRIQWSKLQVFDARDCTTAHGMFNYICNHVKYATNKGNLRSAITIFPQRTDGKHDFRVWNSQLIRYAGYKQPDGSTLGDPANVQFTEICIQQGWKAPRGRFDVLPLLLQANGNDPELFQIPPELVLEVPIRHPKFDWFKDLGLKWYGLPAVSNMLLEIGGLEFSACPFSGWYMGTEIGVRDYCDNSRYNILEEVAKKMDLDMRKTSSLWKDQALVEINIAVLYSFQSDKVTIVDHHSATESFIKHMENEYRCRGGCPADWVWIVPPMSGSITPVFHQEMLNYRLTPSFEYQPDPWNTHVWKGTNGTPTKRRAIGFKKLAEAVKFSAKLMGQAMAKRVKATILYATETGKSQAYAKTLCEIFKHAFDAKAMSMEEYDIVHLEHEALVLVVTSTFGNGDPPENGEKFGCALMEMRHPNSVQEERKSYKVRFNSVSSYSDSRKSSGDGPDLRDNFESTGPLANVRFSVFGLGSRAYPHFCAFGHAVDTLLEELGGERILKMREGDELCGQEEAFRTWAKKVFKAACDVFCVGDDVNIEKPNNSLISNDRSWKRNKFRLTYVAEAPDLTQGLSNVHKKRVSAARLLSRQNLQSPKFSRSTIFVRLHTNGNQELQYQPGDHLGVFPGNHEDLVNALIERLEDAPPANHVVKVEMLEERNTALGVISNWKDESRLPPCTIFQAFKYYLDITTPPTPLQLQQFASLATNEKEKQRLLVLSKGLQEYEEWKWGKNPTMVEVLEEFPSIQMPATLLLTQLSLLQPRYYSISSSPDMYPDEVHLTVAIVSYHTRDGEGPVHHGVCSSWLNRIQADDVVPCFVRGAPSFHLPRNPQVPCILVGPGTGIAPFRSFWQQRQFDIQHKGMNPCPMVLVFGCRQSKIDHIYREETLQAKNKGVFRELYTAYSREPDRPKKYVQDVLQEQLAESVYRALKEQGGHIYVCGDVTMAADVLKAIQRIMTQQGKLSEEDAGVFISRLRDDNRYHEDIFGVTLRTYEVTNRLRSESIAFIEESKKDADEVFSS

[7] = target: Tyrosine-protein kinase Lck (Homo sapiens, UniProt P06239); test: DRUGMATRIX: Protein Tyrosine Kinase, LCK enzyme inhibition (substrate: Poly(Glu:Tyr)); assay type: cell-based, Insect cells; conditions: insect cells; Not Active = under 50% inhibition at 10 µM
Tyrosine-protein kinase Lck, sequence (P06239 whole entry): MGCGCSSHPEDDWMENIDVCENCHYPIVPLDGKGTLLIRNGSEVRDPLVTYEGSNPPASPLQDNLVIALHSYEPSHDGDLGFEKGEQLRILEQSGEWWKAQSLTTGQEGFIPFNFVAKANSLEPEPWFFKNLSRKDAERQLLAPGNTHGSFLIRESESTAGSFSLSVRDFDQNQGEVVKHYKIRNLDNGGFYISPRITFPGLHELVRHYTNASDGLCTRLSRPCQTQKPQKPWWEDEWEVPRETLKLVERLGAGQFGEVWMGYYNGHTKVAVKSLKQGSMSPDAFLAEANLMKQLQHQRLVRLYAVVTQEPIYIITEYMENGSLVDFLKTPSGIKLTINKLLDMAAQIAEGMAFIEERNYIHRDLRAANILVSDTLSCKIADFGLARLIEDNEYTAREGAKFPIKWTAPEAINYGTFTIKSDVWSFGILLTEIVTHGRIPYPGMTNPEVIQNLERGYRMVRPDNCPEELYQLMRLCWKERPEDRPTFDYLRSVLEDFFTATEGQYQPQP

[8] = target: T4, Cysteinyl leukotriene receptor 1 (Homo sapiens, UniProt Q9Y271); assay type: cell membranes, CHO-K1, Membrane; conditions: cho-k1; note: in other assays of this panel Not Active means under 50% inhibition at 10 µM
T4 sequence (Q9Y271 whole entry): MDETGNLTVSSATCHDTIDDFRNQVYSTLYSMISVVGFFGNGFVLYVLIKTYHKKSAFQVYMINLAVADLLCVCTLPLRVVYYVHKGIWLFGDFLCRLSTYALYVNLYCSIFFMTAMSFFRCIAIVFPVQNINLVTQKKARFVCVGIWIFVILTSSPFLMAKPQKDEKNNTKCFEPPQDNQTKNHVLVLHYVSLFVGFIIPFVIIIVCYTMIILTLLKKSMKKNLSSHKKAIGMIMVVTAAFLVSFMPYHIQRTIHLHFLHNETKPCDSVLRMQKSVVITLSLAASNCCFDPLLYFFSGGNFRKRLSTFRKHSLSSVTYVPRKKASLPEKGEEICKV

[9] = DRUGMATRIX: Leukotriene, BLT (LTB4) radioligand binding (ligand: [3H]LTB4); assay type: cell membranes, Membrane; conditions: u-937; Not Active = under 50% inhibition at 10 µM
[10] = target: Protein phosphatase 3 catalytic subunit alpha (Homo sapiens, UniProt Q08209); parameters: species or system Escherichia coli

Adenosine receptor A2a, sequence (P29274 whole entry): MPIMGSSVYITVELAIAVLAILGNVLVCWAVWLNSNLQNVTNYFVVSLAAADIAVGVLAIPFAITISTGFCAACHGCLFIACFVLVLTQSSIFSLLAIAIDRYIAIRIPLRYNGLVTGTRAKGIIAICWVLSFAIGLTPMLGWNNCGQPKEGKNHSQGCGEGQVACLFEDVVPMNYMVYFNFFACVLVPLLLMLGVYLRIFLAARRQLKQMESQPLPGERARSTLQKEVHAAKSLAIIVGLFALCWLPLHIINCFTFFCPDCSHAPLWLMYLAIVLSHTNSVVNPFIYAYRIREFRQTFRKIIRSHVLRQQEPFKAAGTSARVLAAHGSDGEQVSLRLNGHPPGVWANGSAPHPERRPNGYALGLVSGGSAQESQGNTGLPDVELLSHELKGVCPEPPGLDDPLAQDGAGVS

CC=CC(=O)N(CC)c1ccccc1C
Not Active: IC50 (Adenosine receptor A2a) | IC50 (Caspase-1) | IC50 [1] | Ki [1] | IC50 [2] | IC50 [3] | Ki [3] | IC50 [4] | IC50 [5] | IC50 [6] | Ki [6] | IC50 (Nitric oxide synthase 1) | IC50 [7] | IC50 [8] | IC50 [9] | Ki [9] | IC50 [10]

COc1ccc2c(c1)c(CC(=O)OCC(=O)O)c(C)n2C(=O)c1ccc(Cl)cc1 [ACEMETACIN]
Not Active: IC50 (Adenosine receptor A2a) | IC50 (Caspase-1) | IC50 [1] | Ki [1] | IC50 [2] | IC50 [3] | Ki [3] | IC50 [4] | IC50 [5] | IC50 [6] | Ki [6] | IC50 (Nitric oxide synthase 1) | IC50 [7] | IC50 [8] | IC50 [9] | Ki [9] | IC50 [10]

CCCSc1ccc2nc(NC(=O)OC)[nH]c2c1 [ALBENDAZOLE]
Not Active: IC50 (Adenosine receptor A2a) | IC50 (Caspase-1) | IC50 [1] | Ki [1] | IC50 [2] | IC50 [3] | Ki [3] | IC50 [4] | IC50 [5] | IC50 [6] | Ki [6] | IC50 (Nitric oxide synthase 1) | IC50 [7] | IC50 [8] | IC50 [9] | Ki [9] | IC50 [10]

N=C(N)NCCCCNC(=N)N.O=S(=O)(O)O [ARCAINE SULFATE]
Not Active: IC50 (Adenosine receptor A2a) | IC50 (Caspase-1) | IC50 [1] | Ki [1] | IC50 [2] | IC50 [3] | Ki [3] | IC50 [4] | IC50 [5] | IC50 [6] | Ki [6] | IC50 (Nitric oxide synthase 1) | IC50 [7] | IC50 [8] | IC50 [9] | Ki [9] | IC50 [10]

CC(C)(Oc1ccc(CCNC(=O)c2ccc(Cl)cc2)cc1)C(=O)O [BEZAFIBRATE]
Not Active: IC50 (Adenosine receptor A2a) | IC50 (Caspase-1) | IC50 [1] | Ki [1] | IC50 [2] | IC50 [3] | Ki [3] | IC50 [4] | IC50 [5] | IC50 [6] | Ki [6] | IC50 (Nitric oxide synthase 1) | IC50 [7] | IC50 [8] | IC50 [9] | Ki [9] | IC50 [10]

CC1=Nc2ccc(Cl)cc2S(=O)(=O)N1 [DIAZOXIDE]
Not Active: IC50 (Adenosine receptor A2a) | IC50 (Caspase-1) | IC50 [1] | Ki [1] | IC50 [2] | IC50 [3] | Ki [3] | IC50 [4] | IC50 [5] | IC50 [6] | Ki [6] | IC50 (Nitric oxide synthase 1) | IC50 [7] | IC50 [8] | IC50 [9] | Ki [9] | IC50 [10]

CCc1ccc(C(=O)C(C)CN2CCCCC2)cc1 (stereo not given) [EPERISONE]
Not Active: IC50 (Adenosine receptor A2a) | IC50 (Caspase-1) | IC50 [1] | Ki [1] | IC50 [2] | IC50 [3] | Ki [3] | IC50 [4] | IC50 [5] | IC50 [6] | Ki [6] | IC50 (Nitric oxide synthase 1) | IC50 [7] | IC50 [8] | IC50 [9] | Ki [9] | IC50 [10]

CC(C)n1c(/C=C/C(O)CC(O)CC(=O)O)c(-c2ccc(F)cc2)c2ccccc21 (stereo not given) [FLUVASTATIN]
Not Active: IC50 (Adenosine receptor A2a) | IC50 (Caspase-1) | IC50 [1] | Ki [1] | IC50 [2] | IC50 [3] | Ki [3] | IC50 [4] | IC50 [5] | IC50 [6] | Ki [6] | IC50 (Nitric oxide synthase 1) | IC50 [7] | IC50 [8] | IC50 [9] | Ki [9] | IC50 [10]

NCC1(CC(=O)O)CCCCC1 [GABAPENTIN]
Not Active: IC50 (Adenosine receptor A2a) | IC50 (Caspase-1) | IC50 [1] | Ki [1] | IC50 [2] | IC50 [3] | Ki [3] | IC50 [4] | IC50 [5] | IC50 [6] | Ki [6] | IC50 (Nitric oxide synthase 1) | IC50 [7] | IC50 [8] | IC50 [9] | Ki [9] | IC50 [10]

O=P1(NCCCl)OCCCN1CCCl (stereo not given) [IFOSFAMIDE]
Not Active: IC50 (Adenosine receptor A2a) | IC50 (Caspase-1) | IC50 [1] | Ki [1] | IC50 [2] | IC50 [3] | Ki [3] | IC50 [4] | IC50 [5] | IC50 [6] | Ki [6] | IC50 (Nitric oxide synthase 1) | IC50 [7] | IC50 [8] | IC50 [9] | Ki [9] | IC50 [10]
